Values of other authors as cited in patent publication US7521430B2, “N-glucoside compounds having an inhibitory activity against sodium-dependent glucose transporter” (Mitsubishi Tanabe Pharma Corporation, priority 2003, dated 2009).

System: diabetic animal models
Conditions: continuous subcutaneous administration

O=C(CCc1ccc(O)cc1)c1c(O)cc(O)cc1O[C@@H]1O[C@H](CO)[C@@H](O)[C@H](O)[C@H]1O [phlorizin]
hyperglycemia / blood glucose level: hyperglycemia is normalized
